Drawing on PubChem BioAssay AID256 (DTP/NCI, 2004), this text covers T/C for 22 compounds.

This test concerns CD2F1 mice, L1210 leukemia ip, survival T/C. In words: NCI In Vivo Anticancer Drug Screen. Data for tumor model L1210 Leukemia (intraperitoneal) in CD2F1 (CDF1) mice. Conditions: higher = longer survival. The essentials:
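Compound-dosed mice with transplantable tumor versus matched vehicle controls; endpoint ratio T/C reported.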

Setting [1] is: endpoint: mean survival time, dose: 100.0 mg/kg/injection, schedule: Q04DX003 (ip), vehicle: saline with Tween-80.
Where [2] appears, read: endpoint: mean survival time, dose: 200.0 mg/kg/injection, schedule: Q04DX003 (ip), vehicle: saline with Tween-80.
Setting [3] is: endpoint: mean survival time, dose: 400.0 mg/kg/injection, schedule: Q04DX003 (ip), vehicle: saline with Tween-80.
The mark [4] stands for this setting: endpoint: median survival time, dose: 12.5 mg/kg/injection, schedule: Q01DX005 (ip), vehicle: saline with Tween-80.
Setting [5] is: endpoint: median survival time, dose: 25.0 mg/kg/injection, schedule: Q01DX005 (ip), vehicle: saline with Tween-80.
[6] abbreviates: endpoint: median survival time, dose: 50.0 mg/kg/injection, schedule: Q01DX005 (ip), vehicle: saline with Tween-80.
Setting [7] is: endpoint: median survival time, dose: 100.0 mg/kg/injection, schedule: Q01DX005 (ip), vehicle: saline with Tween-80.
The mark [8] stands for this setting: endpoint: median survival time, dose: 200.0 mg/kg/injection, schedule: Q01DX005 (ip), vehicle: saline with Tween-80.

Values joined by “and” are separate entries in the source; they are usually repeats but may differ in a detail not shown here. Equal entries are not always repeated. Toxic doses and inconclusive results are not listed.

Take `O=S(=O)(Cl)c1ccc(-c2ccc(S(=O)(=O)Cl)cc2)cc1`: the T/C by setting is: (endpoint: mean survival time, dose: 100.0 mg/kg/injection, schedule: Q04DX003 (ip), vehicle: Klucel (hydroxypropylcellulose) (HPC)) 95 % of control; (endpoint: mean survival time, dose: 200.0 mg/kg/injection, schedule: Q04DX003 (ip), vehicle: Klucel (hydroxypropylcellulose) (HPC)) 106 % of control; (endpoint: mean survival time, dose: 400.0 mg/kg/injection, schedule: Q04DX003 (ip), vehicle: Klucel (hydroxypropylcellulose) (HPC)) 103 % of control.

Turning to `CCCCCCCC/C=C/CCCCCCCCCCCCCCBr`, the T/C under setting [1] is 104 % of control, the T/C under setting [2] is 98 % of control and the T/C under setting [3] is 93 % of control.

For the compound `COc1ccc(S(=O)(=O)F)cc1NC(=O)COc1cccc(Cl)c1`, the T/C runs as follows: under setting [1], 96 % of control; under setting [2], 97 % of control; under setting [3], 103 % of control.

For the compound `O=C1CSc2nc3ccccc3n21`, the T/C by setting is: (endpoint: mean survival time, dose: 100.0 mg/kg/injection, schedule: Q01DX009 (ip), vehicle: other) 98 % of control; (endpoint: mean survival time, dose: 200.0 mg/kg/injection, schedule: Q01DX009 (ip), vehicle: other) 98 % of control; (endpoint: mean survival time, dose: 400.0 mg/kg/injection, schedule: Q01DX009 (ip), vehicle: other) 105 % of control.

With `CSc1nc(NC2OC(CO)C(O)C(O)C2O)c(I)c(=O)[nH]1` (stereo not given), the T/C under setting [4] was 100 % of control; the T/C under setting [5] was 98 % of control; the T/C under setting [6] was 100 % of control; the T/C under setting [7] is 100 % of control; the T/C under setting [8] is 102 % of control.

With `CS(C)(O)NC(N)=O`, the T/C runs as follows: (endpoint: median survival time, dose: 25.0 mg/kg/injection, schedule: Q01DX009 (ip), vehicle: water) 93 % of control; (endpoint: median survival time, dose: 50.0 mg/kg/injection, schedule: Q01DX009 (ip), vehicle: water) 103 % of control; (endpoint: median survival time, dose: 100.0 mg/kg/injection, schedule: Q01DX009 (ip), vehicle: water) 102 % of control; (endpoint: median survival time, dose: 200.0 mg/kg/injection, schedule: Q01DX009 (ip), vehicle: water) 91 % of control; (endpoint: median survival time, dose: 400.0 mg/kg/injection, schedule: Q01DX009 (ip), vehicle: water) 101 % of control.

As for `Cc1cc(NC(=O)CCc2ccc(N3C(N)=NC(N)=NC3(C)C)cc2)ccc1S(=O)(=O)F`, the T/C (endpoint: mean survival time, dose: 0.8 mg/kg/injection, schedule: Q01DX015 (ip), vehicle: water) was 112 % of control; the T/C (endpoint: mean survival time, dose: 4.0 mg/kg/injection, schedule: Q01DX015 (ip), vehicle: water) was 98 % of control; the T/C (endpoint: mean survival time, dose: 20.0 mg/kg/injection, schedule: Q01DX015 (ip), vehicle: water) is 101 % of control; the T/C (endpoint: mean survival time, dose: 100.0 mg/kg/injection, schedule: Q01DX015 (ip), vehicle: water) was 110 % of control; the T/C (endpoint: mean survival time, dose: 500.0 mg/kg/injection, schedule: Q01DX015 (ip), vehicle: water) is 113 % of control.

Take `CCCC(C)C1=NC(C)(C)CCO1` (stereo not given): the T/C was 96 % of control (endpoint: mean survival time, dose: 12.5 mg/kg/injection, schedule: Q04DX002 (ip), vehicle: saline); 101 % of control (endpoint: mean survival time, dose: 25.0 mg/kg/injection, schedule: Q04DX002 (ip), vehicle: saline); 93 % of control (endpoint: mean survival time, dose: 50.0 mg/kg/injection, schedule: Q04DX002 (ip), vehicle: saline).

On to `CC1(C)OCC(CO)(Nc2nc(N3CC3)nc(N3CC3)n2)CO1`, for which the T/C (endpoint: mean survival time, dose: 0.31 mg/kg/injection, schedule: Q01DX009 (ip), vehicle: saline) was 111 % of control; the T/C (endpoint: mean survival time, dose: 0.62 mg/kg/injection, schedule: Q01DX009 (ip), vehicle: saline) was 117 % of control and 112 % of control; the T/C (endpoint: mean survival time, dose: 1.25 mg/kg/injection, schedule: Q01DX009 (ip), vehicle: saline) was 194 % of control; the T/C (endpoint: mean survival time, dose: 2.5 mg/kg/injection, schedule: Q01DX009 (ip), vehicle: saline) was 186 % of control and 221 % of control and 104 % of control.

Take `COc1ccc([N+](=O)[O-])cc1CO/N=C(/CCC(=O)O)C(=O)O`: the T/C is 101 % of control under setting [1], 106 % of control under setting [2] and 101 % of control under setting [3].

As for `CCCCNC1=C(C)C(=O)C2=C(C1=O)C(COC(N)=O)C1(OC)C3NC3CN21` (stereo not given), the T/C is, setting by setting: (endpoint: mean survival time, dose: 6.3 mg/kg/injection, schedule: Q01DX001 (ip), vehicle: carboxymethylcellulose (CMC)) 102 % of control; (endpoint: mean survival time, dose: 9.5 mg/kg/injection, schedule: Q01DX001 (ip), vehicle: carboxymethylcellulose (CMC)) 118 % of control; (endpoint: mean survival time, dose: 14.25 mg/kg/injection, schedule: Q01DX001 (ip), vehicle: carboxymethylcellulose (CMC)) 102 % of control.

`O=C(CC(CC(=O)C(c1ccccc1)c1ccccc1)c1ccccc1)C(c1ccccc1)c1ccccc1`: the T/C runs as follows: (endpoint: mean survival time, dose: 12.5 mg/kg/injection, schedule: Q04DX002 (ip), vehicle: saline with Tween-80) 93 % of control; (endpoint: mean survival time, dose: 25.0 mg/kg/injection, schedule: Q04DX002 (ip), vehicle: saline with Tween-80) 90 % of control; under setting [2], 86 % of control; under setting [3], 86 % of control.

Consider `O=C(/C(Br)=C/c1ccccc1[N+](=O)[O-])c1ccccc1`, for which the T/C (endpoint: mean survival time, dose: 100.0 mg/kg/injection, schedule: Q01DX001 (ip), vehicle: saline with Tween-80) is 98 % of control; the T/C (endpoint: mean survival time, dose: 200.0 mg/kg/injection, schedule: Q01DX001 (ip), vehicle: saline with Tween-80) was 95 % of control; the T/C (endpoint: mean survival time, dose: 400.0 mg/kg/injection, schedule: Q01DX001 (ip), vehicle: saline with Tween-80) was 98 % of control.

Consider `Cc1cn(C2OC3COC2C3O)c(=O)[nH]c1=O` (stereo not given), for which the T/C under setting [4] was 97 % of control; the T/C under setting [5] is 97 % of control; the T/C under setting [6] is 94 % of control; the T/C under setting [7] is 102 % of control; the T/C under setting [8] was 105 % of control.

`CC1(c2ccc(O)cc2)CCC(C(C)(C)c2ccc(O)cc2)CC1` (stereo not given): the T/C under setting [1] is 92 % of control, the T/C under setting [2] is 90 % of control and the T/C under setting [3] was 90 % of control.

In the case of `O=C(O)C(Br)CC(Br)C(=O)O` (stereo not given), the T/C (endpoint: mean survival time, dose: 50.0 mg/kg/injection, schedule: Q01DX009 (ip), vehicle: saline) is 93 % of control and the T/C (endpoint: mean survival time, dose: 100.0 mg/kg/injection, schedule: Q01DX009 (ip), vehicle: saline) was 93 % of control.

`CCCCCCCCCCCCCCCCCCNC(=O)Nc1cccc(OC)c1`: the T/C is, setting by setting: (endpoint: mean survival time, dose: 200.0 mg/kg/injection, schedule: Q04DX002 (ip), vehicle: saline with Tween-80) 96 % of control; (endpoint: mean survival time, dose: 400.0 mg/kg/injection, schedule: Q04DX002 (ip), vehicle: saline with Tween-80) 101 % of control.

Take `Cc1ccc(/C=C/C(=O)/C=C/c2ccc(C)o2)o1`: the T/C runs as follows: under setting [5], 98 % of control; under setting [6], 92 % of control; under setting [7], 100 % of control; under setting [8], 103 % of control; (endpoint: median survival time, dose: 400.0 mg/kg/injection, schedule: Q01DX005 (ip), vehicle: saline with Tween-80) 98 % of control.

With `C=COC(=O)N1CCCCC1`, the T/C was 97 % of control (endpoint: mean survival time, dose: 75.0 mg/kg/injection, schedule: Q01DX001 (ip), vehicle: saline); 98 % of control (endpoint: mean survival time, dose: 150.0 mg/kg/injection, schedule: Q01DX001 (ip), vehicle: saline); 106 % of control (endpoint: mean survival time, dose: 300.0 mg/kg/injection, schedule: Q01DX001 (ip), vehicle: saline).

As for `COC(=O)/C(=N\NS(=O)(=O)c1ccc(C)cc1)c1ccccc1`, the T/C runs as follows: (endpoint: mean survival time, dose: 25.0 mg/kg/injection, schedule: Q01DX009 (ip), vehicle: Klucel (hydroxypropylcellulose) (HPC)) 100 % of control; (endpoint: mean survival time, dose: 50.0 mg/kg/injection, schedule: Q01DX009 (ip), vehicle: Klucel (hydroxypropylcellulose) (HPC)) 102 % of control; (endpoint: mean survival time, dose: 100.0 mg/kg/injection, schedule: Q01DX009 (ip), vehicle: Klucel (hydroxypropylcellulose) (HPC)) 102 % of control; (endpoint: mean survival time, dose: 200.0 mg/kg/injection, schedule: Q01DX009 (ip), vehicle: Klucel (hydroxypropylcellulose) (HPC)) 91 % of control; (endpoint: mean survival time, dose: 400.0 mg/kg/injection, schedule: Q01DX009 (ip), vehicle: Klucel (hydroxypropylcellulose) (HPC)) 91 % of control.

Turning to `CC1NC1(c1ccccc1)n1ccnc1` (stereo not given), the T/C (endpoint: mean survival time, dose: 12.5 mg/kg/injection, schedule: Q01DX009 (ip), vehicle: water) was 95 % of control; the T/C (endpoint: mean survival time, dose: 25.0 mg/kg/injection, schedule: Q01DX009 (ip), vehicle: water) was 99 % of control; the T/C (endpoint: mean survival time, dose: 50.0 mg/kg/injection, schedule: Q01DX009 (ip), vehicle: water) was 99 % of control; the T/C (endpoint: mean survival time, dose: 100.0 mg/kg/injection, schedule: Q01DX009 (ip), vehicle: water) is 103 % of control; the T/C (endpoint: mean survival time, dose: 200.0 mg/kg/injection, schedule: Q01DX009 (ip), vehicle: water) is 90 % of control.

For `O=S(=O)(Nc1cccc(NS(=O)(=O)c2ccccc2)n1)c1ccccc1`, the T/C was 92 % of control under setting [1], 102 % of control under setting [2] and 92 % of control under setting [3].
